In patent US9073876B2, “Flap modulators” (JANSSEN PHARMACEUTICA NV, priority 2013, dated 2015) one finds Ki and IC50 data, which are given here for 33 molecules.

One assay concerns the target human FLAP (Homo sapiens (Human), UniProt P20292). Kind of assay: FLAP binding assay (HTRF). As to conditions: human FLAP-containing membranes, HTRF format; average of two assay plates, duplicates; read-out: FLAP Binding wild type HTRF Ki. The method in brief:
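Averaged over two plates (duplicate wells per plate); output given as HTRF ratio.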

Assay [1] concerns leukotriene pathway in human whole blood (LTB4 levels). Briefly: Human whole blood assay (LTB4). The note with it: human whole blood diluted 1:1 in RPMI, stimulated with calcium ionophore A23187; single replicate. Format: cell-based. The method in brief: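 Heparinised human whole blood diluted 1:1 in RPMI, pre-incubated 15 min at 37° Celsius with compound, then stimulated with A23187 (7 μg/mL) for 30 min at 37° Celsius. Plasma LTB4 measured by immunoassay kit; IC50 from 4-parameter fit; single replicate per plate, at least one healthy donor.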

Where a name gives a salt, the structure may show the parent alone.

human FLAP, sequence (P20292 whole entry): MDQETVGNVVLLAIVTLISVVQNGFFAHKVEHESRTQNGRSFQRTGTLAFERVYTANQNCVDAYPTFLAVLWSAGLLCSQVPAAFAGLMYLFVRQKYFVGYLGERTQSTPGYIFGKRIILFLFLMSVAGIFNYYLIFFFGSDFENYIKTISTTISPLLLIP

Take `Nc1cnc(-c2ccc(C3CCC3)c(Oc3ccnc(Cl)n3)c2F)cn1` [Example 137, 5-{3-[(2-Chloropyrimidin-4-yl)oxy]-4-cyclobutyl-2-fluorophenyl}pyrazin-2-amine]: the Ki on human FLAP was determined as 3.7 nM. Further, the IC50 in assay [1] was determined as 51 nM.

As to `Nc1cnc(-c2ccc(C3CCC3)c(Oc3cc(N4CCC4)ncn3)c2F)cn1` [Example 138, 5-{3-[(6-Azetidin-1-ylpyrimidin-4-yl)oxy]-4-cyclobutyl-2-fluorophenyl}pyrazin-2-amine trifluoroacetate salt], the Ki at human FLAP is 5.5 nM. For the same molecule, in assay [1], the IC50 turned out to be 70.3 nM.

With `CN(C)c1cc(Oc2c(C3CCC3)ccc(-c3cnc(N)cn3)c2F)nc(C(F)(F)F)n1` [Example 139, 6-[3-(5-Aminopyrazin-2-yl)-6-cyclobutyl-2-fluorophenoxy]-N,N-dimethyl-2-(trifluoromethyl)pyrimidin-4-amine], at human FLAP, the Ki came out at 3.9 nM. The concentration for half-maximal inhibition (IC50) in assay [1] worked out at 48.5 nM.

`Cc1nc(N)cc(Oc2c(C3CCC3)ccc(-c3cnc(N)cn3)c2F)n1` [Example 140, 6-[3-(5-Aminopyrazin-2-yl)-6-cyclobutyl-2-fluorophenoxy]-2-methylpyrimidin-4-amine trifluoroacetate salt]: at human FLAP, the Ki turned out to be 1.3 nM. Moreover, the IC50 in assay [1] came to 11.7 nM.

Consider `Nc1cnc(-c2ccc(C3CCC3)c(Oc3cc(C4CC4)ncn3)c2F)cn1` [Example 141, 5-{4-Cyclobutyl-3-[(6-cyclopropylpyrimidin-4-yl)oxy]-2-fluorophenyl}pyrazin-2-amine], for which the Ki at human FLAP worked out at 5 nM. Also, in assay [1], the IC50 worked out at 58.6 nM.

With `COCc1cc(Oc2c(C3CCC3)ccc(-c3cnc(N)cn3)c2F)nc(N)n1` [Example 142, 4-[3-(5-Aminopyrazin-2-yl)-6-cyclobutyl-2-fluorophenoxy]-6-(methoxymethyl)pyrimidin-2-amine], the Ki on human FLAP turned out to be 1.7 nM. Also, in assay [1], the IC50 turned out to be 18.5 nM.

Take `Nc1cnc(-c2ccc(C3CCC3)c(Oc3cc(Cl)nc(N)n3)c2F)cn1` [Example 143, 4-[3-(5-Aminopyrazin-2-yl)-6-cyclobutyl-2-fluorophenoxy]-6-chloropyrimidin-2-amine]: the Ki at human FLAP worked out at 2.9 nM. Further, in assay [1], the IC50 is 37.7 nM.

Consider `Nc1cnc(-c2ccc(C3CCC3)c(Oc3ccnc(-c4ccccc4)n3)c2F)cn1` [Example 144, 5-{4-Cyclobutyl-2-fluoro-3-[(2-phenylpyrimidin-4-yl)oxy]phenyl}pyrazin-2-amine], for which the inhibition constant Ki on human FLAP is 1.1 nM. Besides, the IC50 in assay [1] stood at 22.3 nM.

In the case of `Nc1cnc(-c2ccc(C3CCC3)c(Oc3cc(-c4ccccc4)ncn3)c2F)cn1` [Example 145, 5-{4-Cyclobutyl-2-fluoro-3-[(6-phenylpyrimidin-4-yl)oxy]phenyl}pyrazin-2-amine], the Ki on human FLAP was found to be 5.4 nM. For the same molecule, the IC50 in assay [1] was determined as 177 nM.

In the case of `Nc1cnc(-c2ccc(C3CCC3)c(Oc3cc(N)nc(Cc4ccccc4)n3)c2F)cn1` [Example 146, 6-[3-(5-Aminopyrazin-2-yl)-6-cyclobutyl-2-fluorophenoxy]-2-benzylpyrimidin-4-amine], the inhibition constant Ki at human FLAP came to 0.4 nM. Also, the IC50 in assay [1] is 4.5 nM.

As for `CC(C)c1cc(Oc2c(C3CCC3)ccc(-c3cnc(N)cn3)c2F)ncn1` [Example 147, 5-(4-Cyclobutyl-2-fluoro-3-{[6-(1-methylethyl)pyrimidin-4-yl]oxy}phenyl)pyrazin-2-amine], the Ki on human FLAP worked out at 6.4 nM. For the same molecule, the half-maximal inhibitory concentration (IC50) in assay [1] was 185 nM.

Take `CC(C)(C)OC(=O)NCCNc1ccnc(Oc2c(C3CCC3)ccc(-c3cnc(N)cn3)c2F)n1` [Example 149, tert-Butyl [2-({2-[3-(5-aminopyrazin-2-yl)-6-cyclobutyl-2-fluorophenoxy]pyrimidin-4-yl}amino)ethyl]carbamate]: the inhibition constant Ki at human FLAP turned out to be 1.3 nM. The concentration for half-maximal inhibition (IC50) in assay [1] was determined as 112 nM.

Turning to `NCCNc1nccc(Oc2c(C3CCC3)ccc(-c3cnc(N)cn3)c2F)n1` [Example 150, N-{4-[3-(5-Aminopyrazin-2-yl)-6-cyclobutyl-2-fluorophenoxy]pyrimidin-2-yl}ethane-1,2-diamine], on human FLAP, the inhibition constant Ki was 176 nM. In assay [1], the IC50 turned out to be 3590 nM.

Take `COC(=O)c1ccnc(Oc2c(C3CCC3)ccc(-c3cnc(N)cn3)c2F)n1` [Example 151, methyl 2-[3-(5-aminopyrazin-2-yl)-6-cyclobutyl-2-fluorophenoxy]pyrimidine-4-carboxylate]: the Ki on human FLAP was determined as 8.9 nM. The IC50 in assay [1] turned out to be 75.4 nM.

Turning to `Nc1cnc(-c2ccc(C3CCC3)c(Oc3nccc(C(=O)O)n3)c2F)cn1` [Example 152, 2-[3-(5-Aminopyrazin-2-yl)-6-cyclobutyl-2-fluorophenoxy]pyrimidine-4-carboxylic acid], the Ki at human FLAP was 62.5 nM. Besides, in assay [1], the IC50 is above 10000 nM.

Consider `Nc1cnc(-c2ccc(C3CCC3)c(Oc3ccc(C(=O)O)cc3)c2F)cn1` [Example 153, 4-[3-(5-Aminopyrazin-2-yl)-6-cyclobutyl-2-fluorophenoxy]benzoic acid], for which the Ki on human FLAP came out at 2.3 nM. For the same molecule, the IC50 in assay [1] was determined as 424 nM.

As for `Nc1cnc(-c2ccc(C3CCC3)c(Oc3ccc(C(=O)O)cn3)c2F)cn1` [Example 154, 6-[3-(5-Aminopyrazin-2-yl)-6-cyclobutyl-2-fluorophenoxy]pyridine-3-carboxylic acid], the inhibitory constant (Ki) at human FLAP came out at 12.5 nM. Also, in assay [1], the half-maximal inhibitory concentration (IC50) is above 10000 nM.

As for `NC(=O)c1ccnc(Oc2c(C3CCC3)ccc(-c3cnc(N)cn3)c2F)n1` [Example 157, 2-[3-(5-Aminopyrazin-2-yl)-6-cyclobutyl-2-fluorophenoxy]pyrimidine-4-carboxamide], the Ki on human FLAP amounted to 20.6 nM. In addition, the IC50 in assay [1] turned out to be 109 nM.

Consider `Nc1cnc(Oc2c(C3CCC3)ccc(-c3cnc(N)cn3)c2F)nc1` [Example 158, 2-[3-(5-Aminopyrazin-2-yl)-6-cyclobutyl-2-fluorophenoxy]pyrimidin-5-amine], for which, on human FLAP, the Ki turned out to be 7.8 nM. In assay [1], the IC50 came out at 35.9 nM.

Consider `COc1c(C2CCC2)ccc(-c2cnc(N)nc2)c1F` [Example 159, 5-(4-cyclobutyl-2-fluoro-3-methoxyphenyl)pyrimidin-2-amine], for which the inhibition constant Ki at human FLAP turned out to be 55.7 nM. Further, the IC50 in assay [1] came out at 3310 nM.

As to `Nc1ncc(-c2ccc(C3CCC3)c(Oc3ncccn3)c2F)cn1` [Example 160, 5-[4-Cyclobutyl-2-fluoro-3-(pyrimidin-2-yloxy)phenyl]pyrimidin-2-amine], at human FLAP, the Ki was 94.7 nM. Moreover, the IC50 in assay [1] is 494 nM.

`Nc1ccnc(Oc2c(C3CCC3)ccc(-c3cnc(N)nc3)c2F)n1` [Example 161, 5-{3-[(4-Aminopyrimidin-2-yl)oxy]-4-cyclobutyl-2-fluorophenyl}pyrimidin-2-amine]: on human FLAP, the Ki was 22.2 nM. In addition, the IC50 in assay [1] worked out at 88 nM.

As for `COCc1cc(Oc2c(C3CCC3)ccc(-c3cnc(N)nc3)c2F)nc(N)n1` [Example 162, 4-[3-(2-Aminopyrimidin-5-yl)-6-cyclobutyl-2-fluorophenoxy]-6-(methoxymethyl)pyrimidin-2-amine], the Ki on human FLAP came to 7.2 nM. In addition, in assay [1], the IC50 was found to be 124 nM.

For `Cc1ccnc(Oc2c(C3CCC3)ccc(-c3cnc(N)nc3)c2F)n1` [Example 163, 5-{4-Cyclobutyl-2-fluoro-3-[(4-methylpyrimidin-2-yl)oxy]phenyl}pyrimidin-2-amine], the Ki at human FLAP stood at 70.4 nM. In assay [1], the half-inhibitory concentration (IC50) stood at 494 nM.

As for `Nc1cc(Oc2c(C3CCC3)ccc(-c3cnc(N)nc3)c2F)ncn1` [Example 164, 5-{3-[(6-Aminopyrimidin-4-yl)oxy]-4-cyclobutyl-2-fluorophenyl}pyrimidin-2-amine], the Ki on human FLAP was 36.8 nM. Besides, in assay [1], the IC50 was 118 nM.

Regarding `CC(C)c1ccnc(Oc2c(C3CCC3)ccc(-c3cnc(N)nc3)c2F)n1` [Example 165, 5-(4-Cyclobutyl-2-fluoro-3-{[4-(1-methylethyl)pyrimidin-2-yl]oxy}phenyl)pyrimidin-2-amine], the Ki at human FLAP worked out at 5.6 nM. Further, the IC50 in assay [1] came out at 304 nM.

On to `Nc1ncc(-c2ccc(C3CCC3)c(Oc3ccnc(N)n3)c2F)cn1` [Example 166, 4-[3-(2-Aminopyrimidin-5-yl)-6-cyclobutyl-2-fluorophenoxy]pyrimidin-2-amine], for which the Ki at human FLAP turned out to be 11.7 nM. In addition, the IC50 in assay [1] was 129 nM.

For `Cc1cc(C)nc(Oc2c(C3CCC3)ccc(-c3cnc(N)nc3)c2F)n1` [Example 167, 5-{4-Cyclobutyl-3-[(4,6-dimethylpyrimidin-2-yl)oxy]-2-fluorophenyl}pyrimidin-2-amine], the Ki on human FLAP was 14.7 nM. Besides, the concentration for half-maximal inhibition (IC50) in assay [1] came out at 45.6 nM.

For `CC(C)c1cc(Oc2c(C3CCC3)ccc(-c3cnc(N)nc3)c2F)nc(N)n1` [Example 168, 4-(3-(2-aminopyrimidin-5-yl)-6-cyclobutyl-2-fluorophenoxy)-6-isopropylpyrimidin-2-amine], on human FLAP, the Ki worked out at 2.8 nM. The IC50 in assay [1] was found to be 36.1 nM.

On to `NC(=O)c1ccnc(Oc2c(C3CCC3)ccc(-c3cnc(N)nc3)c2F)n1` [Example 169, 2-[3-(2-Aminopyrimidin-5-yl)-6-cyclobutyl-2-fluorophenoxy]pyrimidine-4-carboxamide], for which the Ki at human FLAP was found to be 205 nM. For the same molecule, the 50% inhibitory concentration (IC50) in assay [1] was found to be 268 nM.

In the case of `COc1cc(Oc2c(C3CCC3)ccc(-c3cnc(N)nc3)c2F)ncn1` [Example 170, 5-(4-cyclobutyl-2-fluoro-3-((6-methoxypyrimidin-4-yl)oxy)phenyl)pyrimidin-2-amine], the Ki at human FLAP stood at 90.3 nM. In addition, the IC50 in assay [1] was 1430 nM.

Regarding `Nc1ncc(-c2ccc(C3CCC3)c(Oc3cc(O)ncn3)c2F)cn1` [Example 171, 6-[3-(2-Aminopyrimidin-5-yl)-6-cyclobutyl-2-fluorophenoxy]pyrimidin-4-ol trifluoroacetate], the Ki at human FLAP worked out at 39.8 nM. Besides, the IC50 in assay [1] amounted to 252 nM.

With `COc1c(C2CCC2)ccc(-c2ncc(N)nc2C#N)c1F` [Example 172, 6-amino-3-(4-cyclobutyl-2-fluoro-3-methoxyphenyl)pyrazine-2-carbonitrile], the Ki at human FLAP is 394 nM. Besides, the IC50 in assay [1] turned out to be 1660 nM.
